Source: patent US20240293416A1, “TREATMENT OF LIVER DISORDERS WITH A THR-ß AGONIST” (Terns Pharmaceuticals, Inc., priority 2021, published 2024)
Entries after “also recorded” stand apart in the source; their conditions may differ.

Tests used:
[1] = Single ascending dose trial: plasma and urine pharmacokinetics; format: in vivo, human; conditions: for fe (fraction of dose excreted in urine as unmodified Compound 1): fasted, n = 6, mean (% CV)
Experimental: A single-ascending dose clinical trial of Compound 1 (potassium salt) was performed.
PK parameters were estimated via noncompartmental methods using Phoenix WinNonlink (Certara, LP, Princeton, NJ). Concentrations of serum pharmacodynamic (PD) biomarkers apolipoprotein B (Apo B) and sex hormone binding globulin (SHBG) were measured using an immunoassay and serum lipids were determined using spectrophotometry.

[2] = pH and solubilizer effect on solubility; format: physicochemical
Experimental: Solubility of Compound 1 (potassium salt) was evaluated at various pH levels.

[3] = Food effect on PK performance in beagle dogs; format: in vivo; conditions: 10 mg capsule, 5% SLS; fasted vs high fat fed dogs, n=3 per group
Experimental: To determine the food effect on PK performance, beagle dogs were divided into two groups (n=3 per group). For the fasted group, dogs were fasted overnight through 4-hours post dosing. For the fed group, dogs were fed high fat food 30 minutes prior to administration.

[4] = Multiple ascending doses in healthy subjects with elevated LDL-c: safety; format: in vivo, human; conditions: 1, 3, 6 or 10 mg once daily for 14 days
Source text: Objectives: Assess the overall safety and tolerability of multiple ascending doses of Compound 1 in healthy subjects with elevated LDL-c.
Primary Endpoints: Treatment-emergent adverse events (TEAEs), vital signs, clinical laboratory parameters, and electrocardiogram (ECG) monitoring.

[5] = Multiple ascending doses in healthy subjects with elevated LDL-c: PK; format: in vivo, human; conditions: 1, 3, 6 or 10 mg once daily for 14 days
Source text: Secondary Objectives: Evaluate the PK and PD of Compound 1 in healthy subjects with elevated LDL-c following multiple ascending doses of Compound 1.

[6] = Capsule stability studies under stressed conditions; format: physicochemical
Experimental: A direct encapsulation (DE) formulation study of Compound 1 was carried out. This work included DE process development for the preparation of 1 mg, 3 mg, 10 mg, 50 mg and placebo capsules by a semi-automatic or automatic capsule filling machine. Ingredients, ratios, filling weight, flowability and uniformity of the formulation were all evaluated. The developed processes are suitable for the manufacture of Compound 1 drug products for future clinical studies.
Silica gel desiccant was subsequently proposed for the packaging and proven to be effective to mitigate the formation of the impurity.
The effectiveness of the silica gel desiccant in minimizing the degradation was evaluated through comparative stability studies with or without desiccant included in the primary packaging. […] Therefore, packaging with 1 g desiccant was determined to improve product quality and increase product shelf life.

[7] = biological target: T1, BCRP (Homo sapiens, UniProt Q9UNQ0); experiment: In vitro transporter inhibition, BCRP; format: in vitro ADME
T1 sequence (Q9UNQ0 1-655): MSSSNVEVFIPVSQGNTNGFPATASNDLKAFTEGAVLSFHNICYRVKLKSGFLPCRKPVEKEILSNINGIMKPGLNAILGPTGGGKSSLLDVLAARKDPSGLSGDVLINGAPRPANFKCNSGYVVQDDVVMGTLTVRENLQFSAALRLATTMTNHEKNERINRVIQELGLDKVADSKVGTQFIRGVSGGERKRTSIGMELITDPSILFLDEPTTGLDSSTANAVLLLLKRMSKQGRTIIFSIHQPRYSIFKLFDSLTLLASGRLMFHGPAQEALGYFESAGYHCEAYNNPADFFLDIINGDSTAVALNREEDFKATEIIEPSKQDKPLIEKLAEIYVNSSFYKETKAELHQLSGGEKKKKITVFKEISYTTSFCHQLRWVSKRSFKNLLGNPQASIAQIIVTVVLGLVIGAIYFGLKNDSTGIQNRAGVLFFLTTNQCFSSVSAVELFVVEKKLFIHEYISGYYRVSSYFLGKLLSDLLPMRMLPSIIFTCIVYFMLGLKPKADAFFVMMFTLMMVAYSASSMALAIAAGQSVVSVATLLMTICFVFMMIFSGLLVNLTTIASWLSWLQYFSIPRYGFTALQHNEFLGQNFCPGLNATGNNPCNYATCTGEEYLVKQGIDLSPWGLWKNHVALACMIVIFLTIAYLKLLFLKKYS

[8] = biological target: P-gp (Homo sapiens, UniProt P08183); experiment: In vitro transporter inhibition, P-gp; format: in vitro ADME
[9] = system: biopsy-confirmed DIO-NASH mice; experiment: DIO-GAN NASH mice: liver transcriptomics by RNAseq; format: in vivo, C57BL/6JRj mice; conditions: RNAseq at termination
Source text: C57BL/6JRj male mice (n=138) were fed the Gubra Amylin NASH (GAN) diet (40% fat, 22% fructose, 2% cholesterol [D09100310, Research Diets]) or lean chow diet for 35 weeks before treatment start. Prior to treatment all animals underwent liver biopsy for histological confirmation (steatosis score ≥2 and fibrosis stage ≥1) and stratification using the nonalcoholic fatty liver disease (NAFLD) activity scoring (NAS) and fibrosis staging system. The diet-induced obese mice on GAN diet (DIO-GAN) were randomized to 8 treatment groups (Table 16) based on percent-area of picrosirius red (PSR) staining. […] Vehicle-dosed lean chow-fed controls served as healthy controls (n=10). Mice were maintained on their respective diets (GAN or lean chow) for the duration of the study. Within-subject comparisons (pre-vs. post-treatment) were performed for liver biopsy histopathological scores. Terminal quantitative endpoints included plasma/liver biochemistry, liver histomorphometry, and liver transcriptomic analysis by RNAseq.
Tissue was collected and snap-frozen in liquid nitrogen and stored at −80 C until processing. RNA was isolated using a NucleoSpin kit ([…]-NAGEL). […]

P-gp, sequence (P08183 whole entry): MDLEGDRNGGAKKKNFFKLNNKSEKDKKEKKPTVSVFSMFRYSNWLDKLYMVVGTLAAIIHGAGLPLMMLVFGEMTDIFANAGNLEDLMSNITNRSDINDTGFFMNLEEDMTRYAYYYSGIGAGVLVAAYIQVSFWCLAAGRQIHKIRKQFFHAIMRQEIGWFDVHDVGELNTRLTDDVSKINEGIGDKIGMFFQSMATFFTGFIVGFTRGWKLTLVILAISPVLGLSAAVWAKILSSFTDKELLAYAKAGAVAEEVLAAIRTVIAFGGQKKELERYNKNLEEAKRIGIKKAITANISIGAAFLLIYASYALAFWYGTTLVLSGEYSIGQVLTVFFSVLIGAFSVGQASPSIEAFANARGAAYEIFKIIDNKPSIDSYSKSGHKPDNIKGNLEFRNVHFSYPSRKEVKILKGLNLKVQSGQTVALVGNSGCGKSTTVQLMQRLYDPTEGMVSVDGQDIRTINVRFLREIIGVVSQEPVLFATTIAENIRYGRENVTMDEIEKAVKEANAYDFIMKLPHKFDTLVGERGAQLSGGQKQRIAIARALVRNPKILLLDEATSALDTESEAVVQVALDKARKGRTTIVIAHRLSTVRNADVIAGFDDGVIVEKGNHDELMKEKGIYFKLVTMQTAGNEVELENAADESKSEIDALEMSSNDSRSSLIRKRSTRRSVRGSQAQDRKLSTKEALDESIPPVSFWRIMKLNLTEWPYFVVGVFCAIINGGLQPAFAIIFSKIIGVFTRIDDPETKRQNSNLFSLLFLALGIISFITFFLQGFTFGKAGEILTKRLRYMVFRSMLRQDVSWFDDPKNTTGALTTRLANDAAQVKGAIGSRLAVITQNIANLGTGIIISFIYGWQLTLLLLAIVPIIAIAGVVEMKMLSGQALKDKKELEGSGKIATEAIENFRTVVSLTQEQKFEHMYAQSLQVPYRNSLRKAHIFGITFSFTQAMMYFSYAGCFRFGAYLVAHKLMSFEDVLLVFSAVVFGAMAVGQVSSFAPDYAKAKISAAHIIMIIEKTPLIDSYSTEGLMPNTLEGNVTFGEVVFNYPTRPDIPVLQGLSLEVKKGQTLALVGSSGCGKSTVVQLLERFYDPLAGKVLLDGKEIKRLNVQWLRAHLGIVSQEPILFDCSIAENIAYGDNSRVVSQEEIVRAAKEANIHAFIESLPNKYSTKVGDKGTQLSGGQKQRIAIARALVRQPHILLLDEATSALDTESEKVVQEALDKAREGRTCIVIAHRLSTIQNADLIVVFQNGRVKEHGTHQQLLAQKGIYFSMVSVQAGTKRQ

Compound: N#Cc1nn(-c2cc(Cl)c(Oc3n[nH]c(=O)c4ccccc34)c(Cl)c2)c(=O)[nH]c1=O [Compound 1, 2-(3,5-dichloro-4-((4-oxo-3,4-dihydrophthalazin-1-yl)oxy)phenyl)-3,5-dioxo-2,3,4,5-tetrahydro-1,2,4-triazine-6-nitrile]
- renal excretion ([1]; all single doses): Minimal renal excretion
- fe (fraction of dose excreted in urine as unmodified Compound 1) ([1]; single 3 mg dose): 2.95 (62) % dose, urine
- fe (fraction of dose excreted in urine as unmodified Compound 1) ([1]; single 10 mg dose): 2.05 (74) % dose, urine
- fe (fraction of dose excreted in urine as unmodified Compound 1) ([1]; single 30 mg dose): 1.78 (35) % dose, urine
- fe (fraction of dose excreted in urine as unmodified Compound 1) ([1]; single 60 mg dose): 1.53 (53) % dose, urine
- dose proportionality of exposures (AUC, Cmax) ([1]; single doses 3-60 mg): approximately dose-proportional; also recorded: linear and dose-proportional plasma exposures with low variability
- aqueous solubility ([2]; even in the salt form): very low aqueous solubility
- Solubility ([2]; pH 10.0 buffer, 24 h, with 2 wt % SLS, 25° C., potassium salt): 308.2 µg/mL
- food effect on Tmax [3]: delayed
- food effect on plasma exposure [3]: did not have an impact on the plasma exposure
- ALT increase to ≥2×ULN [4]: No subject
- free T4 [4]: Dose-dependent declines
- safety and tolerability [4]: generally safe and well-tolerated
- severity of AEs [4]: mild to moderate with no apparent dose relationship
- PK dose proportionality and variability [5]: dose-proportional PK with low variability
- capsule short stability ([6]; 3 mg strength capsule, 60° C./75% RH, two weeks): a degradation impurity formed
- effect of desiccant packaging on degradation impurities ([6]; 1, 3, 10 and 50 mg capsules, 40° C./75% RH): significantly retarded the formation of degradation impurities

Compound: Cn1cc(C(=O)O)c2ccc(C3CCC(OCc4c(-c5c(Cl)cccc5Cl)noc4C4CC4)CC3)cc21 (stereo not drawn) [Compound 2]
- IC50 [7]: 4.39 µM
- IC50 [8]: 3.92 µM
- liver expression of Col1a1, Acta2, Lgals3 and CD146 relative to DIO-GAN vehicle control [9]: significantly reduced expression
- liver expression of Scd1 [9]: reduced
